Counter-ions that a name gives are not always drawn.
melting point [°C] | Compound
198.8 | N#Cc1ccc(NC2CCN(Cc3cc(F)cc(C(F)(F)F)c3)CC2)nc1
129.5 | N#Cc1ccc(NC2CCN(Cc3cc(F)c(F)c(F)c3)CC2)nc1
102.6 | N#Cc1ccc(NC2CCN(Cc3cc(F)cc(F)c3)CC2)nc1
115.2 | N#Cc1cccc(NC2CCN(Cc3cc(F)cc(C(F)(F)F)c3)CC2)n1
268.7 | Fc1ccc(CN2CCC(Nc3ccc(C(F)(F)F)cn3)CC2)cc1F (as salt: hydrochloric acid salt)
111.6 | N#Cc1ccc(NC2CCN(Cc3cccc(C(F)(F)F)c3)CC2)nc1

Source: patent US20100137368A1, “PYRIDINE DERIVATIVES AS FAST DI[…] 2 RECEPTOR ANTAGONISTS” (JANSSEN PHARMACEUTICA N.V., priority 2007, published 2010)
